Reference: patent US10077232B2, “Cyclic cationic lipids and methods of use” (ARBUTUS BIOPHARMA CORPORATION, priority 2010, dated 2018)

Experiment: TNS assay, apparent pKa of cationic lipids in 1:57 SNALP
Description: The apparent pKa of the cationic lipids present in these SNALP formulations was determined using a 2-(p-toluidinyl)-naphthalene-6-sodium sulfonate (TNS) assay. TNS is a negatively-charged indicator of membrane potential that is electrostatically attracted to positively charged membranes (see, Bailey and Cullis, Biochemistry, 33 12573-80 (1994)). Subsequent adsorption to the lipid membrane results in the immediate environment of the TNS becoming more lipophilic, removing the water molecules that otherwise quench TNS fluorescence. As a result, TNS measures the surface potential of the particle, wherein the more positive the surface potential, the greater the level of fluorescence. The surface pKa values of each SNALP formulation were determined by varying the local pH in the presence of TNS. By plotting fluorescence versus pH, the pKa of the cationic lipid can be estimated in the particle as the pH where fluorescence equals 50% of total fluorescence.

pKa	pKa (apparent, surface) (1:57 SNALP with encapsulated ApoB siRNA, pH where TNS fluorescence equals 50% of total)	SMILES
~6		CCCCCC1CC1CC1CC1CC1CC1CCCCCC(CCCCCC1CC1CC1CC1CC1CC1CCCCC)OC(=O)CCCN(C)C (stereo not drawn) [CP-γ-LenMC3]
~6.1		CCC1CC1CC1CC1CC1CC1CCCCCCCCC(CCCCCCCCC1CC1CC1CC1CC1CC1CC)OC(=O)CCCN(C)C (stereo not drawn) [CP-LenMC3]
~6.1		CCCCC/C=C\C/C=C\C/C=C\CCCCCC(CCCCC/C=C\C/C=C\C/C=C\CCCCC)OC(=O)CCCN(C)C [g-Len-MC3]
~5.8		CCCCCC1CC1CC1CC1CC1CC1CCCCCOCC(CN(C)C)OCCCCCC1CC1CC1CC1CC1CC1CCCCC (stereo not drawn) [CP-γ-DLenDMA]
~5.8		CCCCCCCCC1CC1CCCCCCCCOCC(CN(C)C)OCCCCCCCCC1CC1CCCCCCCC (stereo not drawn) [CP-DODMA]
~5.8		CCCCCC1CC1CC1CC1CCCCCCCCOCC(CN(C)C)OCCCCCCCCC1CC1CC1CC1CCCCC (stereo not drawn) [CP-DLinDMA]
~5.95		CCCCCCCCCCCC1CC1CCCCCOCC(CN(C)C)OCCCCCC1CC1CCCCCCCCCCC (stereo not drawn) [CP-DPetroDMA]
~5.85		CCC1CC1CC1CC1CC1CC1CCCCCCCCOCC(CN(C)C)OCCCCCCCCC1CC1CC1CC1CC1CC1CC (stereo not drawn) [CP-DLenDMA]
	~5.85	CCCCC/C=C\C/C=C\CCCCCCCCOCC(COCC(CCN(C)C)OCCCCCCCC/C=C\C/C=C\CCCCC)OCCCCCCCC/C=C\C/C=C\CCCCC (stereo not drawn) [Compound C2-TLinDMA, reference compound]
